According to US10413517B2, “Composition and method for the treatment of neurological diseases and cerebral injury” (UNIVERSITY OF NOTRE DAME DU LAC, priority 2014, dated 2019):

Key:
[1] = tested on: CD68, ITGAX, MIP1α and CTSD; assay: qPCR of inflammatory markers in the liver; type: in vivo, mouse; details: 100 days; Vo 50 mg/Kg; HPBCD 2000 mg/Kg; TCF
Experimental: (§1) Vorinostat (50 mg/Kg)—Vorinostat was first dissolved in DMSO (100 mg/ml) and then diluted with 9 volume of Polyethylene Glycol 400 (PEG). This drug solution was named as ‘solution A’. Solution A was diluted with equal volume of water where the final concentration of each component was as follows; Vorinostat, 5 mg/ml; DMSO, 5% and PEG, 45%. Mice were given weekly intraperitoneal (i.p) injections starting at 21 days. Vorinostat (100 mg/Kg)—Vorinostat was first dissolved in DMSO (200 mg/ml) and then mixed with 9 volumes of PEG. Rest of the methods and injections plan were as described above. HPBCD (4000 mg/Kg)—40% HPBCD solution prepared in water. Mice were given weekly i.p injections starting at 7 days. HPBCD (2000 mg/Kg)—20% HPBCD solution prepared in water. Mice were given weekly i.p injections starting at 7 days. TCF (Vorinostat, 50 mg/Kg+HPBCD, 2000 mg/Kg, DMSO, 5%+PEG, 45%)—To prepare the formulation, the ‘solution A’ was first prepared as described above and equal volume of 40% HPBCD solution was slowly layered on top of it. The solution was gently mixed for 10 min at RT on rocker set at medium speed. […]
(§2) Quantitative PCR (qPCR) was performed using Power SYBR Green RNA-to-CT 1-Step Kit and an ABI Prism 7500 Fast real-time PCR system (Applied Biosystems, Grand Island, USA). […] The relative amount of transcript was determined using comparative CT method. […]

GFAP, MIP1α and CD68 = assay: qPCR of inflammatory markers in the brain; type: in vivo, mouse; details: day 100, once weekly dosing
Experimental: as §1, §2

Row | Structure (SMILES) | inflammatory markers in the liver [1] | levels of inflammatory markers GFAP, MIP1α and CD68 in the brain (GFAP, MIP1α and CD68)
1 | O=C(CCCCCCC(=O)Nc1ccccc1)NO [vorinostat] | significant anti-inflammatory activity | –
2 | CC(O)COC[C@H]1O[C@@H]2O[C@H]3[C@H](O)[C@@H](O)[C@@H](O[C@H]4[C@H](O)[C@@H](O)[C@@H](O[C@H]5[C@H](O)[C@@H](O)[C@@H](O[C@H]6[C@H](O)[C@@H](O)[C@@H](O[C@H]7[C@H](O)[C@@H](O)[C@@H](O[C@H]8[C@H](O)[C@@H](O)[C@@H](O[C@H]1[C@H](O)[C@H]2O)O[C@@H]8COCC(C)O)O[C@@H]7COCC(C)O)O[C@@H]6COCC(C)O)O[C@@H]5COCC(C)O)O[C@@H]4COCC(C)O)O[C@@H]3COCC(C)O (stereo partly drawn) [HPBCD, 2-Hydroxypropyl-β-cyclodextrin] | – | reduced their levels comparably to TCF and better than Vo
